Measured values: patent US8163766B2, “Beta-secretase modulators and methods of use” (Amgen Inc., priority 2005, dated 2012)

What follows are compounds tested on Aβ 40 in conditioned media of cells stably expressing Amyloid Precursor Protein (APP) (assay: BACE Cell-Based Assay (Aβ40 in conditioned medium, sandwich ELISA)). Settings: 24 hours of incubation with the test compounds, Aβ 40 by sandwich ELISA, read-out: IC50 values in the cell-based assay (inhibition of Aβ 40).
Method in brief: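 IC50 derived from Aβ40 reduction in supernatants, quantified by europium time-resolved fluorescence ELISA with pAb40/biotin-6E10 antibodies incubated at 4°C. Cells stably expressing APP received compound for 24 h, ten concentrations from 100 μM or 10 μM top, final DMSO 0.1%.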

IC50, ≤ 5 µM:
CCc1ccc2c(c1)[C@@H](NC[C@@H](O)[C@H](Cc1ccccc1)NC(=O)[C@H]1CN(C(C)=O)c3ccccc3O1)CC1(CCCC1)O2 [Example 50, (R)-4-acetyl-N-((2S,3R)-4-((S)-6-ethyl-2,2-spirocyclopentylchroman-4-ylamino)-3-hydroxy-1-phenylbutan-2-yl)-3,4-dihydro-2H-benzo[b][1,4]oxazine-2-carboxamide]
CCc1ccc2c(c1)[C@@H](NC[C@@H](O)[C@H](Cc1ccccc1)NC(=O)c1cc(N3CCCC3=O)c(=O)n(C3CCCC3)c1)CC1(CCC1)O2 [Example 116]
Cc1cccc(C(=O)N2CCO[C@@H](C(=O)N[C@@H](Cc3cc(F)cc(F)c3)[C@H](O)CN[C@H]3CC4(CCC4)Cc4ncc(C)cc43)C2)c1 [Example 493, (2R)-N-((1S,2R)-1-((3,5-difluorophenyl)methyl)-2-hydroxy-3-(((5′S)-3′-methyl-5′,8′-dihydro-6′H-spiro[cyclobutane-1,7′-quinolin]-5′-yl)amino)propyl)-4-((3-methylphenyl)carbonyl)-2-morpholinecarboxamide]
Cc1cccc(C(=O)N2CCO[C@H](C(=O)N[C@@H](Cc3cccc(C#N)c3)[C@H](O)CN[C@H]3CC(C)(C)Cc4ncc(C)cc43)C2)c1 [Example 496, (2S)-N-((1S,2R)-1-((3-cyanophenyl)methyl)-2-hydroxy-3-(((5S)-3,7,7-trimethyl-5,6,7,8-tetrahydro-5-quinolinyl)amino)propyl)-4-((3-methylphenyl)carbonyl)-2-morpholinecarboxamide]
CCc1ccc2c(c1)C(NC[C@@H](O)[C@H](Cc1ccccc1)NC(=O)c1cc(-c3ccccn3)c(=O)n(C3CCCC3)c1)CC1(CCC1)O2 (stereo partly drawn) [Example 164, 1-Cyclopentyl-N-((2S,3R)-4-((S)-6-ethyl-2,2-spirocyclobutylchroman-4-ylamino)-3-hydroxy-1-phenylbutan-2-yl)-6-oxo-5-(pyridin-2-yl)-1,6-dihydropyridine-3-carboxamide]
CC1(C)C[C@@H](NC[C@@H](O)[C@H](Cc2ccccc2)NC(=O)c2cc(-c3ccccn3)c(=O)n(C3CCCC3)c2)c2cc(Br)ccc2N1 [Example 481, N-((1S,2R)-3-(((4R)-6-bromo-2,2-dimethyl-1,2,3,4-tetrahydro-4-quinolinyl)amino)-2-hydroxy-1-(phenylmethyl)propyl)-1′-cyclopentyl-2′-oxo-1′,2′-dihydro-2,3′-bipyridine-5′-carboxamide]
CC1(C)Cc2ccc(O[C@H]3CCOC3)cc2[C@@H](NC[C@@H](O)[C@H](Cc2ccccc2)NC(=O)[C@@H]2CCC(=O)O2)C1 [Example 517, (2S)-N-((1S,2R)-3-(((1S)-3,3-dimethyl-7-((3S)-tetrahydro-3-furanyloxy)-1,2,3,4-tetrahydro-1-naphthalenyl)amino)-2-hydroxy-1-(phenyl-methyl)propyl)-5-oxotetrahydro-2-furancarboxamide]
CCc1ccc2c(c1)[C@@H](NC[C@@H](O)[C@H](Cc1ccccc1)NC(=O)C1CN(C)c3ccccc3O1)CC1(CCCC1)O2 (stereo partly drawn) [Example 48, (S)—N-((2S,3R)-4-((S)-6-ethyl-2,2-spirocyclopentylchroman-4-ylamino)-3-hydroxy-1-phenylbutan-2-yl)-4-methyl-3,4-dihydro-2H-benzo[b][1,4]oxazine-2-carboxamide]
Cc1cnc2c(c1)[C@@H](NC[C@@H](O)[C@H](Cc1cc(F)cc(F)c1)NC(=O)C1CCOCC1)CC(C)(C)C2 [Example 503, N-((1S,2R)-1-((3,5-difluorophenyl)methyl)-2-hydroxy-3-(((5S)-3,7,7-trimethyl-5,6,7,8-tetrahydro-5-quinolinyl)amino)propyl)tetrahydro-2H-pyran-4-carboxamide]
CCc1ccc2c(c1)C(NC[C@@H](O)[C@H](Cc1ccccc1)NC(=O)c1cc(-c3ccccc3F)c(=O)n(C3CCCC3)c1)CC1(CCCC1)O2 (some centres unmarked) [Example 3]
CCc1ccc2c(c1)C(NC[C@@H](O)[C@H](Cc1ccccc1)NC(=O)c1cc(-c3cccc(F)c3)c(=O)n(C3CCCC3)c1)CC1(CCCC1)O2 (some centres unmarked) [Example 9]
O=C(N[C@@H](Cc1ccccc1)[C@H](O)CN[C@H]1CC2(CCCC2)Oc2ccc(OC(F)(F)F)cc21)c1cc(N2CCCC2=O)c(=O)n(C2CCCC2)c1 [Example 134, 1-cyclopentyl-N-((2S,3R)-4-((S)-2,2-spirocyclopentyl-6-(trifluoromethoxy)chroman-4-ylamino)-3-hydroxy-1-phenylbutan-2-yl)-6-oxo-5-(2-oxopyrrolidin-1-yl)-1,6-dihydropyridine-3-carboxamide]
O=C(N[C@@H](Cc1ccccc1)[C@H](O)CN[C@H]1CC2(CCCC2)Oc2ccccc21)c1cc(-c2ccccn2)c(=O)n(C2CCCC2)c1 [Example 150, 1-cyclopentyl-N-((2S,3R)-4-((S)-2,2-spirocyclopentylchroman-4-ylamino)-3-hydroxy-1-phenylbutan-2-yl)-6-oxo-5-(pyridin-2-yl)-1,6-dihydropyridine-3-carboxamide]
CCc1ccc2c(c1)C(NC[C@@H](O)[C@H](Cc1ccccc1)NC(=O)c1ccc(=O)n(C3CCCC3)c1)CC1(CCCC1)O2 (some centres unmarked) [Example 2]
CCc1ccc2c(c1)[C@@H](NC[C@@H](O)[C@H](Cc1ccccc1)NC(=O)c1cc(-c3cccc(F)c3)c(=O)n3c1CCC3)CC1(CCCC1)O2 [Example 108, N-((2S,3R)-4-((8)-6-Ethyl-2,2-spirocyclopentylchroman-4-ylamino)3-hydroxy-1-phenylbutan-2-yl)-6-(3-fluorophenyl)-5-oxo-1,2,3,5-tetrahydroindolizine-8-carboxamide]
O=C(N[C@@H](Cc1ccccc1)[C@H](O)CN[C@H]1CC2(CCCC2)Oc2ccc(F)cc21)c1cc(N2CCCC2=O)c(=O)n(C2CCCC2)c1 [Example 110]
CC(C)(C)Cc1ccc2c(c1)[C@@H](NC[C@@H](O)[C@H](Cc1ccccc1)NC(=O)c1ccc(=O)n(C3CCCC3)c1)CC1(CCCC1)O2 [Example 125]
CC#CC[C@H](NC(=O)c1cc(-c2ccccn2)c(=O)n(C2CCCC2)c1)[C@H](O)CN[C@H]1CC2(CCC2)Oc2ccc(CC)cc21 [Example 477, 1′-cyclopentyl-N-((1S)-1-((1R)-2-(((4S)-6-ethyl-3,4-dihydrospiro[chromene-2,1′-cyclobutan]-4-yl)amino)-1-hydroxyethyl)-3-pentyn-1-yl)-2′-oxo-1′,2′-dihydro-2,3′-bipyridine-5′-carboxamide]
Cc1cccc(C(=O)N2CCO[C@@H](C(=O)N[C@@H](Cc3cccc(C#N)c3)[C@H](O)CN[C@H]3CC4(CCC4)Cc4ncc(C)cc43)C2)c1 [Example 491, (2R)-N-((1S,2R)-1-((3-cyanophenyl)methyl)-2-hydroxy-3-(((5′S)-3′-methyl-5′,8′-dihydro-6′H-spiro[cyclobutane-1,7′-quinolin]-5′-yl)amino)propyl)-4-((3-methylphenyl)carbonyl)-2-morpholinecarboxamide]
CCc1ccc2c(c1)C(NC[C@@H](O)[C@H](Cc1ccccc1)NC(=O)c1cc(-c3ccc(F)cc3)c(=O)n(C3CCCC3)c1)CC1(CCCC1)O2 (some centres unmarked) [Example 7]
CCc1ccc2c(c1)[C@@H](NC[C@@H](O)[C@H](Cc1ccccc1)NC(=O)C1Cc3ccccc3N(C)C1)CC1(CCCC1)O2 (stereo partly drawn) [Example 49, N-((2S,3R)-4-((S)-6-ethyl-2,2-spirocyclopentylchroman-4-ylamino)-3-hydroxy-1-phenylbutan-2-yl)-1-methyl-1,2,3,4-tetrahydroquinoline-3-carboxamide]
CC(C)c1ccc2c(c1)[C@@H](NC[C@@H](O)[C@H](Cc1ccccc1)NC(=O)c1cc(N3CCCC3=O)c(=O)n(C3CCCC3)c1)CC1(CCCC1)O2 [Example 137, 1-cyclopentyl-N-((2S,3R)-4-((S)-2,2-spirocyclopentyl-6-iso-propylchroman-4-ylamino)-3-hydroxy-1-phenylbutan-2-yl)-6-oxo-5-(2-oxopyrrolidin-1-yl)-1,6-dihydropyridine-3-carboxamide]
CCc1ccc2c(c1)[C@@H](NC[C@@H](O)[C@H](Cc1ccccc1)NC(=O)c1ccc(=O)n(-c3ccccc3)n1)CC1(CCC1)O2 [Example 146, N-((2S,3R)-4-((S)-6-ethyl-2,2-spirocyclobutylchroman-4-ylamino)-3-hydroxy-1-phenylbutan-2-yl)-6-oxo-1-phenyl-1,6-dihydropyridazine-3-carboxamide]
CCc1ccc2c(c1)C(NC[C@@H](O)[C@H](Cc1ccccc1)NC(=O)c1cc(-c3cncnc3)c(=O)n(C3CCCC3)c1)CC1(CCCC1)O2 (stereo partly drawn) [Example 16, 1-cyclopentyl-N-((2S,3R)-4-(6-ethyl-2,2-spirocyclopentylchroman-4-ylamino)-3-hydrodroxy-1-phenylbutan-2-yl)-6-OXO-5-(pyrimidin-5-yl)-1,6-dihydropyridine-3-carboxamide]
O=C(N[C@@H](Cc1ccccc1)[C@H](O)CN[C@H]1CC2(CCC2)Oc2ccccc21)c1ccc(=O)n(C2CCCC2)c1 [Example 153, 1-cyclopentyl-N-((2S,3R)-4-((S)-2,2-spirocyclobutylchroman-4-ylamino)-3-hydroxy-1-phenylbutan-2-yl)-6-oxo-1,6-dihydropyridine-3-carboxamide]
O=C(N[C@@H](Cc1ccccc1)[C@H](O)CN[C@H]1CC2(CCCC2)Oc2c(F)cc(F)cc21)c1cc(N2CCCC2=O)c(=O)n(C2CCCC2)c1 [Example 111]
